According to ChEMBL document CHEMBL1201862, “PubChem BioAssay data set” (2004):
The source made the active and inactive calls.

Legend:
Escherichia coli = assay: microbe, parasite or virus in culture
NS3 = NS3 (Hepatitis C virus, UniProt A3EZJ3); assay: PubChem AID 2173; parameters: species or system Hepacivirus hominis
Estrogen receptor = molecular target: T1, Estrogen receptor (Homo sapiens, UniProt P03372);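 also: potency for inhibiting coactivator peptide recruitment to the receptor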
T1 sequence (P03372 whole entry): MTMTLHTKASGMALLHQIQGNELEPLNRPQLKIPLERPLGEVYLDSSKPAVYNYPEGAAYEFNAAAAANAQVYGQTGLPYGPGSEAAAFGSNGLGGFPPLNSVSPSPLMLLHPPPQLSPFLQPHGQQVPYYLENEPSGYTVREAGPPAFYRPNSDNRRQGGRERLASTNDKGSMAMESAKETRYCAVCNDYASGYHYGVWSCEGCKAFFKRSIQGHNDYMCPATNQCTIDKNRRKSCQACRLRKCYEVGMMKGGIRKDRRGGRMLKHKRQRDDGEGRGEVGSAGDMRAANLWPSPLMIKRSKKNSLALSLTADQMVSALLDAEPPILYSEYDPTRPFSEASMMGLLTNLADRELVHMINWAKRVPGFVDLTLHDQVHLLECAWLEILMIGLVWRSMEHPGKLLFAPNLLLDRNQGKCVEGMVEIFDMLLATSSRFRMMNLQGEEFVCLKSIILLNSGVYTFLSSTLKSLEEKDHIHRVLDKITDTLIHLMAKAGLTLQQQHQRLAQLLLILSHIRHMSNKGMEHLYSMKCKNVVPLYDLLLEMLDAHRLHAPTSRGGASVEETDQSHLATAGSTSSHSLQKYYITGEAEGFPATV

[1] = molecular target: G-protein coupled receptor 55 (Homo sapiens, UniProt Q9Y2T6); assay: GPR55 antagonists blocking LPI-driven arrestin recruitment, primary screen, imaging, U2OS, beta-arrestin-GFP, LPI agonist (AID 2013); format: functional;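 also: antagonist potency measured as reduced agonist-driven arrestin aggregation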
Bcl-2-related protein A1 [2] = molecular target: T2, Bcl-2-related protein A1 (Mus musculus, UniProt Q07440); assay: Bfl-1 binding inhibitors, SAR follow-up, biochemical, fluorescence polarization (AID 1070)
T2 sequence (Q07440 whole entry): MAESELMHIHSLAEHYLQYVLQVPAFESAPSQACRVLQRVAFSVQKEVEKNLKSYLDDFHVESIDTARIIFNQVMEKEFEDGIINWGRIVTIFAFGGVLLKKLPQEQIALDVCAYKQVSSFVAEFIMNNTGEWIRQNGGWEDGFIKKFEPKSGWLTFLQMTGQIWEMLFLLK

Bcl-2-related protein A1 [3] = molecular target: T2, Bcl-2-related protein A1; assay: Bfl-1 inhibitors blocking BH3 peptide binding, confirmation, biochemical, TR-FRET, mouse Bfl-1 (AID 621);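 also: TR-FRET binding of GST-Bfl-1 to FITC-labelled Bid peptide via terbium antibody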
[4] = molecular target: Glyceraldehyde-3-phosphate dehydrogenase (Homo sapiens, UniProt P04406)
Vero [5] = assay: cells; format: functional; conditions: Chlorocebus sabaeus
Vero [6] = assay: cells; format: functional, cell-based; conditions: Chlorocebus sabaeus
Paired box protein Pax-8 = Paired box protein Pax-8 (Homo sapiens, UniProt Q06710); assay: inhibitors of PAX8-driven TPO luciferase reporter, dose response, RMG-I cells, cherry-pick (AID 687027); format: functional, cell-based;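 also: luciferase reporter driven by Pax8 target thyroperoxidase promoter measured by SteadyGlo luminescence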
[7] = molecular target: T3, Carboxy-terminal domain RNA polymerase II polypeptide A small phosphatase 1 (Homo sapiens, UniProt Q9GZU7); assay: inhibitors of CTDSP1, concentration-response testing, biochemical assay, absorbance-based, actives from ultra-high-throughput screening (AID 540297); format: functional
T3 sequence (Q9GZU7 whole entry): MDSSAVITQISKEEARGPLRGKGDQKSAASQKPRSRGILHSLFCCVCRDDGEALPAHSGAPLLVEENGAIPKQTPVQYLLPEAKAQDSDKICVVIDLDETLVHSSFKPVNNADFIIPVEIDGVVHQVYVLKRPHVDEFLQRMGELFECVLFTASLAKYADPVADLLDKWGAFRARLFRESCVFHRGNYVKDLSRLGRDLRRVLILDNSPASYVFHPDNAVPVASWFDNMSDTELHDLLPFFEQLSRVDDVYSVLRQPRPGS

[8] = Luminescence Cell-Based Dose Retest to Confirm Inhibitors of Cancer Stem Cells. [Related pubchem assays (depositor defined):AID2717, AID2721]; format: functional; conditions: Homo sapiens
Streptococcus = assay: Group A Streptococcus viability loss, dose response, counter-screen for streptokinase expression inhibitor project, luminescence, BacTiterGlo (AID 1915); format: functional, organism-based;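 also: potency for reduction of bacterial viability or growth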
[9] = insulin promoter down-regulators in MIN6 cells, imaging, high-content screening, mouse beta cells (AID 1628); format: functional
Streptokinase A = molecular target: T4, Streptokinase A (Streptococcus pyogenes serotype M1, UniProt P10520); assay: S. pyogenes streptokinase expression inhibitors, potency, dose response, plasminogen activation absorbance, OD405 (AID 1914); format: functional, Streptococcus pyogenes M1 GAS;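 also: secreted streptokinase activity via plasminogen activation per viability signal from cell pellet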
T4 sequence (P10520 whole entry): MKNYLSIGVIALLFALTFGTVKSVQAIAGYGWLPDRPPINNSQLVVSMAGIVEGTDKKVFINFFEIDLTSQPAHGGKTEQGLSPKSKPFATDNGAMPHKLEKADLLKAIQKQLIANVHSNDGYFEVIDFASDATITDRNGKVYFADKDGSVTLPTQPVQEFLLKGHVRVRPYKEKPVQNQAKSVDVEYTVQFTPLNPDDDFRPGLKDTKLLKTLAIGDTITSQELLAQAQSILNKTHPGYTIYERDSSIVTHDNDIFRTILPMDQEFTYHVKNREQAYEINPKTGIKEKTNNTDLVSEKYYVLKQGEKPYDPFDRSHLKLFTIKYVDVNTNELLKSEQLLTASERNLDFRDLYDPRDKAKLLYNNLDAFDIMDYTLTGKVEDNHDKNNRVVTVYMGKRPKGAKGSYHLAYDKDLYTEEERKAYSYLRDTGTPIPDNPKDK

[10] = tested on: Streptococcus sp. 'group A'; assay: growth inhibition of control SK(-) GAS strain, dose response, counter-screen for streptokinase expression inhibitor project, luminescence, kanamycin, BacTiterGlo, confirmation (AID 1900); format: functional, organism-based
[11] = cytotoxicity in MIN6 insulinoma cells, dose response, cytotoxicity control, cell-based, mouse insulinoma (AID 2122); format: functional;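 also: confirmatory high-throughput counterscreen run to flag cytotoxic compounds; mouse MIN-6 beta cells carrying an insulin promoter eGFP reporter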
HEK293 [12] = assay: cells; format: functional, cell-based; conditions: Homo sapiens
HEK293 [13] = assay: NOD2 signaling inhibitors in MDP-stimulated cells, cell-based, uHTS, luminescence (AID 2001); format: functional; conditions: Homo sapiens
HEK293 [14] = assay: NOD1 signaling inhibitors, primary screen, cell-based, luminescence, uHTS (AID 1578); format: functional; conditions: Homo sapiens
HEK293 [15] = assay: cells; format: functional, cell-based; conditions: Homo sapiens; remark: listed apart in the source

Sequence of G-protein coupled receptor 55 (Q9Y2T6 whole entry): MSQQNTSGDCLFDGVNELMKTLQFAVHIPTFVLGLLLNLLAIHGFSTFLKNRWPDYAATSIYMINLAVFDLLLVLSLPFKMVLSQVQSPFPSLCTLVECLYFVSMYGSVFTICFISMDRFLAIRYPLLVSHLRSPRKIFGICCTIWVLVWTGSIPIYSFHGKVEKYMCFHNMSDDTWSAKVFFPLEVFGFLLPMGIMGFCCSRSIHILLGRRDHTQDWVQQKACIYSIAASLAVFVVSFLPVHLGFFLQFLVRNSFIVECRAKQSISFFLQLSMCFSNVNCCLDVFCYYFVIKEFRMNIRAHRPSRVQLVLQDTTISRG
Sequence of Glyceraldehyde-3-phosphate dehydrogenase (P04406 whole entry): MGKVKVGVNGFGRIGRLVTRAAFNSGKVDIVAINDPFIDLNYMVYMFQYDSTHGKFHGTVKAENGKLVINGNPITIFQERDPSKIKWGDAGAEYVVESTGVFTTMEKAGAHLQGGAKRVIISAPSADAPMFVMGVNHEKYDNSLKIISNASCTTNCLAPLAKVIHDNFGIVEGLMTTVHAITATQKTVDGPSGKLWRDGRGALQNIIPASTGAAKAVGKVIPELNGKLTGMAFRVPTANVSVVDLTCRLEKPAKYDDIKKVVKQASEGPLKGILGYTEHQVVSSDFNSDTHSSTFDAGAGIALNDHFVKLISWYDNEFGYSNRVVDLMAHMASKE
Sequence of NS3 (A3EZJ3 whole entry): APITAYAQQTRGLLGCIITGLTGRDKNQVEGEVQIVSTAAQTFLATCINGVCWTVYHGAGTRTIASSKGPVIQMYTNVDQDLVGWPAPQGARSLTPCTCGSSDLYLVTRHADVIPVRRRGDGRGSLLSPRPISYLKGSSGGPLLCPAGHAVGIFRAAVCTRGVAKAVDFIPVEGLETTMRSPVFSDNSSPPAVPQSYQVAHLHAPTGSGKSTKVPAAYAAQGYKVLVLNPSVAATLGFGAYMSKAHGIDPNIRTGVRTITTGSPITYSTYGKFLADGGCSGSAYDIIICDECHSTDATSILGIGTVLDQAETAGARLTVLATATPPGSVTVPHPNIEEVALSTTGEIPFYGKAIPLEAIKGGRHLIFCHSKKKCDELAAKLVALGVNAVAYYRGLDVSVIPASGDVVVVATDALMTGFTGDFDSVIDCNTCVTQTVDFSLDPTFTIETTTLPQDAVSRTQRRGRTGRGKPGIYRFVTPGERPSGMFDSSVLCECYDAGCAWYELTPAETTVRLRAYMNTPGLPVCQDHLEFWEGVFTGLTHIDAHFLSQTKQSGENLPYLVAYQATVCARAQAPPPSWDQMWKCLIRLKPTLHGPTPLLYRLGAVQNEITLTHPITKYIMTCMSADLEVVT
Sequence of Paired box protein Pax-8 (Q06710 whole entry, the tested form may be a part): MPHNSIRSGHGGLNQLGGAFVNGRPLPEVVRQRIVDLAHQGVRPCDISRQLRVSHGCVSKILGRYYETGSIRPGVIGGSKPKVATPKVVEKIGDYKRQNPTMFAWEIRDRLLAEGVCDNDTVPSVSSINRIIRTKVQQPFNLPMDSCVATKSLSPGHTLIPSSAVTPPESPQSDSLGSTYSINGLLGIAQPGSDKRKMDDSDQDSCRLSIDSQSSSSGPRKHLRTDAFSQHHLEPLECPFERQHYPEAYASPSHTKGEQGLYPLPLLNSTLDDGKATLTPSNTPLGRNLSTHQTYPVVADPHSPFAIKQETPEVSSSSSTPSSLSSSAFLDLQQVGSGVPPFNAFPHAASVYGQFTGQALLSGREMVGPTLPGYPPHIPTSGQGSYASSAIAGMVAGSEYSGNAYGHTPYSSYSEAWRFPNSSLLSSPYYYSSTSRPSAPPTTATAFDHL

C=CCN1C(=O)c2ccc(C(=O)N3CCC(C(N)=O)CC3)cc2C1=O
AC50 (Escherichia coli): 57.7 µM (active)

CC1CCCN(C(=O)c2nn(C)c3c2CSc2ccccc2-3)C1 (stereo not drawn)
AC50 (Escherichia coli): 48.3 µM (active)

Cc1cccc(N2C(=O)C(O)=C(C(=O)c3cccs3)C2c2cccc(Oc3ccccc3)c2)n1 (stereo not drawn)
IC50 (NS3): 3.02 µM (active)

C=CCn1c(=O)[nH]c2cc(C(=O)N3CCN(c4ccc(C(C)=O)cc4)CC3)ccc2c1=O
IC50 (Estrogen receptor): > 50 µM (not active)

O=C(Nc1ccccc1Cl)C(Cl)C(=O)c1ccccc1 (stereo not drawn)
IC50 [1]: 11.2 µM (inactive)

CN1CCN(C2=C(Cl)C(=O)N(c3c(Cl)cccc3Cl)C2=O)CC1
IC50 (Bcl-2-related protein A1 [2]): 13.4 µM (active)
IC50 (Bcl-2-related protein A1 [3]): 3.72 µM (active)
IC50 [4]: > 100 µM (not active)

Cc1cc2cc(CN(CCN(C)C)C(S)=NCc3ccco3)c(O)nc2cc1C
CC50 (Vero [5]): > 25 µM (active)
IC50 (Vero [6]): 10.4 µM (active)

CC12CCC3C(CCC4(O)CC(O)CCC34C=NO)C1(O)CCC2C1=COC(=O)C1 (stereo not drawn)
AC50 (Paired box protein Pax-8): 1.12 µM (active)
CC50 (Vero [5]): 0.62 µM (active)
IC50 (Vero [6]): > 25 µM (active)

O=C(CSc1nc(-c2ccc(F)cc2)cs1)NC(=O)NCc1ccco1
IC50 [7]: 18.8 µM (active)
IC50 (Estrogen receptor): > 50 µM (not active)

Brc1ccc2[nH]c3c(N4CCc5ccccc5C4)ncnc3c2c1
AC50 [8]: 20.4 µM (active)
EC50 (Streptococcus): > 150 µM (not active)
IC50 [9]: 1.43 µM (active)
EC50 (Streptokinase A): 10.9 µM (active)
EC50 [10]: 5.55 µM (active)
IC50 [11]: 1.28 µM (active)

Cc1noc2ncnc(N3CCN(c4cccc(Cl)c4)CC3)c12
IC50 (HEK293 [12]): 8.79 µM (active)
IC50 (HEK293 [13]): 10.3 µM (inactive)
EC50 (HEK293 [14]): 10.4 µM (active)
IC50 (HEK293 [15]): > 20 µM (inactive)

Cc1ccc(OCCOCCNC(C)(C)C)c([N+](=O)[O-])c1
AC50 (Escherichia coli): 46.9 µM (active)

COC(=O)c1cc(NC2c3ccccc3C(=O)N2c2ccc(Cl)cn2)cc(C(=O)OC)c1 (stereo not drawn)
IC50 (Estrogen receptor): > 50 µM (not active)

COc1ccc(-n2c(SCC(=O)/C(C#N)=C(\C)N)nc3ccccc3c2=O)cc1OC
IC50 (cells): 2.62 µM (active)
